Data on seven molecules can be found in patent US4021481A, “Amido derivatives of 2,4,6-triiodobenzoic acids containing at least one N-hydroxyalkyl and at least two hydroxyl groups” (Nyegaard & Co. A/S, priority 1969, dated 1977).

In data set [1] the test system is mice. Briefly: Intravenous toxicity in mice (LD50). The data set is classed as in vivo. The following applies: concentration administered 300 mgI/ml. An excerpt:
(§1) As indicated above, the new non-ionic compounds according to the invention have shown markedly low levels of toxicity, especially in intracerebral tests. […] It will be seen that all the new compounds listed are very much better than the known compounds in the intracerebral test.
(§2) Intravenous and Intracerebral Toxicity
(§3) Most of the compounds were so inert that it was not physically possible to inject sufficient substance to kill 50% of the mice and in such cases only a minimum value can be given for the LD50.

For data set [2], the system named is mice. Kind of data set: Intracerebral toxicity in mice (LD50). The data set is classed as in vivo.
Source text: as §1, §2, §3

Data set [3] in a line: Solubility in water. It counts as physicochemical. The settings on record: water, room temperature; read-out: Solubility in water at room temperature (class).
Data set [4] is described as follows: Osmolality of aqueous solution. It counts as physicochemical. The following applies: 37° C.; 300 mg I/ml. Here is the method:
As indicated above, the compounds according to the invention are of low osmolality as compared to conventional ionic contrast agents and many of the compounds show even lower osmolality values than would have been expected. The observed osmolality in each case would be expected to be about 0.8 mol/kg but compounds 3, 33, 35, 44 and 11 identified in Table I have shown osmolality values of 0.47, 0.48, 0.61, 0.53 and 0.48 mol/kg respectively at 37° C. (300 mg I ml). The last two compounds in Table 2, which are ionic compounds shown for comparison, have osmolality values of about 1.6 mol/kg.

Data set [5] can be described thus: Viscosity. The following applies: 20° C.; 300 mgI/ml. The data set is classed as physicochemical. An excerpt:
However, the preferred compounds listed above in relation to the myelographic field are also very useful in cardiovascular visualisation due to their extremely good tolerance.

For data set [6] the following is noted: subarachnoideal space; in words; cited from earlier work.
The mark [7] stands for this setting: 300 mgI/ml, dose 0.05 ml/20 g mouse.
The mark [8] stands for this setting: 300 mgI/ml, dose 0.10 ml/20 g mouse.

For the molecule `CC(=O)Nc1c(I)c(C(=O)N(C)C[C@H](O)[C@@H](O)[C@H](O)[C@H](O)CO)c(I)c(N(C)C(C)=O)c1I` [Compound 3, N-(N-methyl-3,5-diacetamido-2,4,6-triiodobenzoyl)-N-methyl glucamine], in data set [1], the “Intravenous LD50” value is reported as 6000 mgI/kg. The “Intracerebral LD50” value in data set [2] (setting [7]) is on record as more than 750 mgI/kg. Besides, in data set [3], the solubility (in general, how much of the substance goes into solution per volume) is more than 500 mg/mL. The Osmolality in data set [4] worked out at 0.47 mol/kg.

Take `CC(=O)Nc1c(I)c(C(=O)N(C)CC(O)CO)c(I)c(C(=O)N(C)CC(O)CO)c1I` (stereo not drawn) [Compound 9, 3,5-Bis-[N-(2,3-dihydroxypropyl)-N-methylcarbomoyl]-2,4,6-triiodoacetanilide]: the “Intravenous LD50” value in data set [1] stood at 13500 mgI/kg. In data set [2] (setting [8]), the “Intracerebral LD50” value is on record as “about 1500 mgI/kg”. Further, in data set [3], the solubility was more than 500 mg/mL. In data set [5], this molecule displayed a Viscosity of 7.1 cp.

On to `CC(=O)Nc1c(I)c(C(=O)N[C@H]2C(O)O[C@H](CO)[C@@H](O)[C@@H]2O)c(I)c(N(C)C(C)=O)c1I` (stereo partly drawn) [Compound 11, N-(N-methyl-3,5-diacetamido-2,4,6-triiodobenzoyl)-glucosamine], for which the “Intravenous LD50” value in data set [1] stood at 15000 mgI/kg. In addition, in data set [2] (setting [8]), the “Intracerebral LD50” value was more than 1500 mgI/kg. In data set [3], the solubility was more than 500 mg/mL. The molecule also came in with an Osmolality in data set [4] of 0.48 mol/kg.

On to `CC(=O)Nc1c(I)c(C(=O)NC[C@H](O)[C@@H](O)[C@H](O)[C@H](O)CO)c(I)c(N(C)C(C)=O)c1I` [Compound 33, N-(N-methyl-3,5-diacetamido-2,4,6-triiodobenzoyl)-D-glucamine], for which, in data set [1], the “Intravenous LD50” value came out at 14250 mgI/kg. The “Intracerebral LD50” value in data set [2] (setting [7]) is more than 750 mgI/kg; in data set [2] (setting [8]), more than 1500 mgI/kg. The solubility in data set [3] is more than 500 mg/mL. Moreover, the Osmolality in data set [4] worked out at 0.48 mol/kg.

With `CC(=O)N(C)c1c(I)c(C(=O)N(C)C[C@H](O)[C@@H](O)[C@H](O)[C@H](O)CO)c(I)c(N(CCO)C(C)=O)c1I` [Compound 35, N-[3-N-methylacetamido-5-N-(β-hydroxyethyl)-acetamido-2,4,6-triiodobenzoyl]-N-methylglucamine], the “Intracerebral LD50” value in data set [2] (setting [7]) was more than 750 mgI/kg; in data set [2] (400 mgI/ml, dose 0.10 ml/20 g mouse) it was more than 2000 mgI/kg. In data set [3], the solubility is more than 500 mg/mL. Also, the Osmolality in data set [4] was determined as 0.61 mol/kg.

With `CC(=O)N(CCO)c1c(I)c(C(=O)N(C)CC(O)CO)c(I)c(N(CCO)C(C)=O)c1I` (stereo not drawn) [Compound 44], the “Intracerebral LD50” value in data set [2] (setting [7]) is more than 750 mgI/kg; in data set [2] (setting [8]), more than 1500 mgI/kg. Further, in data set [3], the solubility is more than 500 mg/mL. This molecule showed an Osmolality in data set [4] of 0.53 mol/kg.

For the molecule `O=S(=O)(O)CI` [iodomethane sulphonate], in data set [6], the Absorption entry is reported as “quite rapidly absorbed”; the Toxicity in use result was “too toxic for cisternography, ventriculography and cervical or thoracic myelography”.
